Test results published in ChEMBL document CHEMBL4732153, “Phenyl 4-(2-oxopyrrolidin-1-yl)benzenesulfonates and phenyl 4-(2-oxopyrrolidin-1-yl)benzenesulfonamides as new antimicrotubule agents targeting the colchicine-binding site” (Eur J Med Chem, 2021).
The source made the active and inactive calls. The calls are words filed in the database; no cut-off is given here.

Tests used:
HT-1080 = experiment: Antiproliferative activity against human HT-1080 cells assessed as reduction in cell viability measured after 48 hrs by sulforhodamine B assay; type: functional, cell-based; conditions: HT-1080, 48 h
HT-29 = experiment: Antiproliferative activity against human HT-29 cells assessed as reduction in cell viability measured after 48 hrs by sulforhodamine B assay; type: functional, cell-based; conditions: HT-29, 48 h
M21 [1] = experiment: Antiproliferative activity against human M21 cells assessed as reduction in cell viability measured after 48 hrs by sulforhodamine B assay; type: functional, cell-based; conditions: M21, 48 h
MCF7 = experiment: Antiproliferative activity against human MCF7 cells assessed as reduction in cell viability measured after 48 hrs by sulforhodamine B assay; type: functional, cell-based; conditions: MCF7, 48 h
M21 [2] = experiment: Cell cycle arrest in human M21 cells assessed as accumulation at SubG1 phase at 2 to 5 times IC50 measured after 24 hrs by DAPI staining based flow cytometry (reference value: 5%); type: functional
M21 [3] = experiment: Cell cycle arrest in human M21 cells assessed as accumulation at G0/G1 phase at 2 to 5 times IC50 measured after 24 hrs by DAPI staining based flow cytometry (reference value: 65.5%); type: functional
M21 [4] = experiment: Cell cycle arrest in human M21 cells assessed as accumulation at S phase at 2 to 5 times IC50 measured after 24 hrs by DAPI staining based flow cytometry (reference value: 16.1%); type: functional
M21 [5] = experiment: Cell cycle arrest in human M21 cells assessed as accumulation at G2/M phase at 2 to 5 times IC50 measured after 24 hrs by DAPI staining based flow cytometry (reference value: 13.4%); type: functional
Tubulin (Homo sapiens) [6] = molecular target: T1, Tubulin (Homo sapiens) (UniProt P68371+Q9H4B7+P0DPH7+P68366+Q13509+Q71U36+P04350+Q3ZCM7+P07437+P68363+Q9BQE3+Q6PEY2+Q13885+Q9BVA1+Q9BUF5); experiment: Disruption of microtubule polymerization in human M21 cells at 5 times IC50 measured after 24 hrs by DAPI staining based immunofluorescence microscopic analysis; type: cell-based
Tubulin (Homo sapiens) [7] = molecular target: T1, Tubulin (Homo sapiens); experiment: Disruption of microtubule polymerization in human M21 cells assessed as induction of mitotic abnormalities at 5 times IC50 measured after 24 hrs by DAPI staining based immunofluorescence microscopic analysis; type: cell-based
[8] = Solubility of compound in DMSO at 30 uM; type: physicochemical
Sus scrofa [9] = species on record: Sus scrofa; experiment: Inhibition of porcine brain tubulin polymerization at 30 uM measured after 60 mins by fluorescence assay
[10] = molecular target: Tubulin beta (Homo sapiens) (UniProt P68371+Q9H4B7+Q13509+P04350+Q3ZCM7+P07437+Q13885+Q9BVA1+Q9BUF5+A6NNZ2); experiment: Inhibition of EBI binding to colchicine-binding site of beta-tubulin in human M21 cells at 100 to 1000 times IC50 preincubated for 2 hrs followed by EBI addition and measured after 1.5 hrs by Western blot analysis; type: cell-based; conditions: time 3.5 hrs
[11] = Toxicity in chick embryo assessed as death at 20 ug, iv incubated for 7 days relative to control; type: organism-based; conditions: in vivo, at 20 µg, time 7 day, read-out: Activity
M21 [12] = experiment: Cell cycle arrest in human M21 cells assessed as accumulation at SubG1 phase at 11 nM measured after 24 hrs by DAPI staining based flow cytometry (reference value: 5%); type: functional
M21 [13] = experiment: Cell cycle arrest in human M21 cells assessed as accumulation at G0/G1 phase at 11 nM measured after 24 hrs by DAPI staining based flow cytometry (reference value: 65.5%); type: functional
M21 [14] = experiment: Cell cycle arrest in human M21 cells assessed as accumulation at S phase at 11 nM measured after 24 hrs by DAPI staining based flow cytometry (reference value: 16.1%); type: functional
M21 [15] = experiment: Cell cycle arrest in human M21 cells assessed as accumulation at G2/M phase at 11 nM measured after 24 hrs by DAPI staining based flow cytometry (reference value: 13.4%); type: functional
Sus scrofa [16] = species on record: Sus scrofa; experiment: Inhibition of porcine brain tubulin polymerization at 15 uM measured after 60 mins by fluorescence assay
[17] = Solubility of compound in DMSO at 3 uM; type: physicochemical
Sus scrofa [18] = species on record: Sus scrofa; experiment: Inhibition of porcine brain tubulin polymerization at 3 uM measured after 60 mins by fluorescence assay
[19] = Toxicity in chick embryo assessed as death at 10 ug, iv incubated for 7 days relative to control; type: organism-based; conditions: in vivo, at 10 µg, time 7 day, read-out: Activity
[20] = Solubility of compound in DMSO at 15 uM; type: physicochemical
[21] = Toxicity in chick embryo assessed as death at 1 ug, iv incubated for 7 days relative to control; type: organism-based; conditions: in vivo, at 1 µg, time 7 day, read-out: Activity

IC50 (HT-1080) [nM]	IC50 (HT-29) [nM]	IC50 (MCF7) [nM]	SMILES	IC50 (M21 [1]) [nM]	Activity (M21 [2]) [%]	Activity (M21 [3]) [%]	Activity (M21 [4]) [%]	Activity (M21 [5]) [%]	further results
1300	590	830	O=C1CCCN1c1ccc(S(=O)(=O)Nc2cccc(Br)c2)cc1	950	–	–	–	–	–
860	390	600	O=C1CCCN1c1ccc(S(=O)(=O)Nc2cccc(I)c2)cc1	330	6.8	11.2	7.8	74.2	Activity (Tubulin (Homo sapiens) [6]): Active; Activity (Tubulin (Homo sapiens) [7]): Active; Inhibition of EBI binding (active/inactive) [10]: Active
680	680	560	O=C1CCCN1c1ccc(S(=O)(=O)Nc2cccc(Cl)c2)cc1	770	10.6	13.7	7.9	67.8	–
1300	1200	890	COc1ccccc1OS(=O)(=O)c1ccc(N2CCCC2=O)cc1	1300	–	–	–	–	–
2600	2900	1700	O=C1CCCN1c1ccc(S(=O)(=O)Oc2ccc(-c3ccccc3)cc2)cc1	2300	–	–	–	–	–
8500	4800	4600	COc1ccc(NS(=O)(=O)c2ccc(N3CCCC3=O)cc2)cc1	7500	–	–	–	–	–
8800	5400	7000	O=C1CCCN1c1ccc(S(=O)(=O)Nc2ccc(-c3ccccc3)cc2)cc1	4700	–	–	–	–	–
4900	3400	2800	O=C1CCCN1c1ccc(S(=O)(=O)Nc2ccccc2)cc1	5600	–	–	–	–	–
40	59	22	O=C1CCCN1c1ccc(S(=O)(=O)Oc2cccc(I)c2)cc1	88	4.3	7.8	6.5	81.4	–
3200	2400	1800	COc1ccccc1NS(=O)(=O)c1ccc(N2CCCC2=O)cc1	3000	–	–	–	–	–
840	5400	680	O=C1CCCN1c1ccc(S(=O)(=O)Nc2cccc(F)c2)cc1	2300	–	–	–	–	–
370	350	210	O=C1CCCN1c1ccc(S(=O)(=O)Oc2ccccc2-c2ccccc2)cc1	190	–	–	–	–	–
990	1300	690	COc1cc(NS(=O)(=O)c2ccc(N3CCCC3=O)cc2)cc(OC)c1	390	4.9	43.1	9.8	42.2	–
21000	12000	16000	CC(C)c1ccccc1NS(=O)(=O)c1ccc(N2CCCC2=O)cc1	9900	–	–	–	–	–
190	120	100	COc1cccc(OS(=O)(=O)c2ccc(N3CCCC3=O)cc2)c1	120	–	–	–	–	–
810	310	370	O=C1CCCN1c1ccc(S(=O)(=O)Oc2cccc(F)c2)cc1	300	–	–	–	–	–
2250	890	2600	COc1ccc(NS(=O)(=O)c2ccc(N3CCCC3=O)cc2)cc1OC	5100	–	–	–	–	–
8500	4800	4600	COc1ccc(OS(=O)(=O)c2ccc(N3CCCC3=O)cc2)cc1	7500	–	–	–	–	–
1200	730	960	O=C1CCCN1c1ccc(S(=O)(=O)Nc2ccccc2-c2ccccc2)cc1	430	3	59.8	12.1	25.1	–
180	120	140	O=C1CCCN1c1ccc(S(=O)(=O)Oc2cccc(Cl)c2)cc1	110	–	–	–	–	–
11	16	17	COc1cc(OS(=O)(=O)c2ccc(N3CCCC3=O)cc2)cc(OC)c1OC	13	3.8	8.3	6.1	81.8	Activity (Tubulin (Homo sapiens) [6]): Active; Activity (Tubulin (Homo sapiens) [7]): Active; Inhibition of EBI binding (active/inactive) [10]: Active
920	480	650	O=C1CCCN1c1ccc(S(=O)(=O)Oc2ccccc2)cc1	460	–	–	–	–	–
80	60	60	O=C1CCCN1c1ccc(S(=O)(=O)Oc2cccc(Br)c2)cc1	40	13.3	24	9.6	53.1	–
840	780	500	CC(C)c1ccccc1OS(=O)(=O)c1ccc(N2CCCC2=O)cc1	910	–	–	–	–	–
1300	860	1100	COc1cccc(NS(=O)(=O)c2ccc(N3CCCC3=O)cc2)c1	940	–	–	–	–	–
590	690	290	COc1ccc(OS(=O)(=O)c2ccc(N3CCCC3=O)cc2)cc1OC	650	–	–	–	–	–

SMILES	IC50 (HT-1080) [nM]	IC50 (HT-29) [nM]	IC50 (MCF7) [nM]	IC50 (M21 [1]) [nM]	Activity (M21 [2]) [%]	Activity (M21 [3]) [%]	Activity (M21 [4]) [%]	Activity (M21 [5]) [%]	further results
COc1cc(OC)cc(OS(=O)(=O)c2ccc(N3CCCC3=O)cc2)c1	26	39	21	12	12.1	32.7	9.6	45.6	Activity (Tubulin (Homo sapiens) [6]): Active; Activity (Tubulin (Homo sapiens) [7]): Active; solubility [8]: Soluble; inhibition (Sus scrofa [9]): Active; Inhibition of EBI binding (active/inactive) [10]: Active; mortality at 168 h [11]: 18%
COc1ccc(/C=C\c2cc(OC)c(OC)c(OC)c2)cc1O [COMBRETASTATIN A4]	2.2	5.1	1.9	2.2	–	–	–	–	Activity (M21 [12]): 4.1%; Activity (M21 [13]): 9.2%; Activity (M21 [14]): 7.2%; Activity (M21 [15]): 79.5%; inhibition (Sus scrofa [16]): Active; Inhibition of EBI binding (active/inactive) [10]: Active
O=C1CCCN1c1ccc(S(=O)(=O)Oc2cc(Br)cc(Br)c2)cc1	11	10	11	8.7	3.9	9.4	7	79.7	Activity (Tubulin (Homo sapiens) [6]): Active; Activity (Tubulin (Homo sapiens) [7]): Active; solubility [17]: Soluble; inhibition (Sus scrofa [18]): Active; Inhibition of EBI binding (active/inactive) [10]: Active; mortality at 168 h [19]: 18%
O=C1CCCN1c1ccc(S(=O)(=O)Nc2cc(Br)cc(Br)c2)cc1	590	390	520	280	4.2	8.3	6.3	81.2	Activity (Tubulin (Homo sapiens) [6]): Active; Activity (Tubulin (Homo sapiens) [7]): Active; solubility [17]: Soluble; inhibition (Sus scrofa [18]): Active; Inhibition of EBI binding (active/inactive) [10]: Active; mortality at 168 h [19]: 25%
COc1cc(NS(=O)(=O)c2ccc(N3CCCC3=O)cc2)cc(OC)c1OC	130	80	88	56	3.9	8.2	7.5	80.4	solubility [20]: Soluble; Activity (Tubulin (Homo sapiens) [6]): Active; Activity (Tubulin (Homo sapiens) [7]): Active; inhibition (Sus scrofa [16]): Active; Inhibition of EBI binding (active/inactive) [10]: Active; mortality at 168 h [21]: 8%
